Data reported in ChEMBL document CHEMBL3882729, “Receptor-type kinase modulators and methods of use” (2009).

Legend:
Ephrin type-A receptor 2 = Ephrin type-A receptor 2 (Homo sapiens, UniProt P29317); assay: Inhibition of recombinant human N-terminal His6-tagged EphA2 (N598 to R890 residues) expressed in baculovirus using poly-EY as substrate after 180 mins by luciferase coupled chemiluminescence assay
Ephrin type-B receptor 4 = biological target: T1, Ephrin type-B receptor 4 (Homo sapiens, UniProt P54760); assay: Inhibition of recombinant human N-terminal His6-tagged EphB4 kinase domain (E605 to E890 residues) expressed in baculovirus using poly-AEKY as substrate after 150 mins in presence of gamma33P-ATP by liquid scintillation spectrometry
T1 sequence (P54760 whole entry): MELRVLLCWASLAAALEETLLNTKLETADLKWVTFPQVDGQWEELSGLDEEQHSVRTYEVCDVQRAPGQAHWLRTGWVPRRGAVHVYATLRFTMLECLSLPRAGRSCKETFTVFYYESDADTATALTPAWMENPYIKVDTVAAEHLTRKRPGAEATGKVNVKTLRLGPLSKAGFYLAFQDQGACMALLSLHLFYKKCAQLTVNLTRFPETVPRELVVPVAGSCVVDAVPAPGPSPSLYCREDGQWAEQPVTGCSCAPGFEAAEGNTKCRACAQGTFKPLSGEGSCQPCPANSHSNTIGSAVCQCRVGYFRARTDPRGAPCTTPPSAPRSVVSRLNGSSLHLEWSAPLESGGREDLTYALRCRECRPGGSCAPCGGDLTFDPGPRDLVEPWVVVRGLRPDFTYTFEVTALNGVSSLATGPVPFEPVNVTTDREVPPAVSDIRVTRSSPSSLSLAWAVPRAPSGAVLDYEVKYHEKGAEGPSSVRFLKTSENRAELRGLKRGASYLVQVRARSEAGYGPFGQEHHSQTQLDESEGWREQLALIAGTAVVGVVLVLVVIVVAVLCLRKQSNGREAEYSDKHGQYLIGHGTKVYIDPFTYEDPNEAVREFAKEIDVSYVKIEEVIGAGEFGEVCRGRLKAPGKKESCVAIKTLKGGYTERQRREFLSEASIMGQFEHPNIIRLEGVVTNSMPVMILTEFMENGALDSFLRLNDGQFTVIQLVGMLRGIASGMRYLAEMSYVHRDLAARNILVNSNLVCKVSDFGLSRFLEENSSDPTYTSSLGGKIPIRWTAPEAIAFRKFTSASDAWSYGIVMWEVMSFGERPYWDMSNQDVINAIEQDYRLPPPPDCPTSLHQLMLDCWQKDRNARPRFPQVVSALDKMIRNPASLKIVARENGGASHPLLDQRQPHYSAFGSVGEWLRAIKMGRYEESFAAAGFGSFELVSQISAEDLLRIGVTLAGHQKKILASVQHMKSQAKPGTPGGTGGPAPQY

[1] = biological target: Receptor tyrosine-protein kinase erbB-2 (Homo sapiens, UniProt P04626); assay: Inhibition of recombinant human N-terminal GST His6-tagged thrombin cleavage site-fused ErbB2 kinase domain (Q679 to V1255 residues) expressed in baculovirus infected insect Sf9 cells using biotinylated poly-EY as substrate after 60 mins by alphascreen assay
Sequence of Receptor tyrosine-protein kinase erbB-2 (P04626 whole entry, the tested form may be a part): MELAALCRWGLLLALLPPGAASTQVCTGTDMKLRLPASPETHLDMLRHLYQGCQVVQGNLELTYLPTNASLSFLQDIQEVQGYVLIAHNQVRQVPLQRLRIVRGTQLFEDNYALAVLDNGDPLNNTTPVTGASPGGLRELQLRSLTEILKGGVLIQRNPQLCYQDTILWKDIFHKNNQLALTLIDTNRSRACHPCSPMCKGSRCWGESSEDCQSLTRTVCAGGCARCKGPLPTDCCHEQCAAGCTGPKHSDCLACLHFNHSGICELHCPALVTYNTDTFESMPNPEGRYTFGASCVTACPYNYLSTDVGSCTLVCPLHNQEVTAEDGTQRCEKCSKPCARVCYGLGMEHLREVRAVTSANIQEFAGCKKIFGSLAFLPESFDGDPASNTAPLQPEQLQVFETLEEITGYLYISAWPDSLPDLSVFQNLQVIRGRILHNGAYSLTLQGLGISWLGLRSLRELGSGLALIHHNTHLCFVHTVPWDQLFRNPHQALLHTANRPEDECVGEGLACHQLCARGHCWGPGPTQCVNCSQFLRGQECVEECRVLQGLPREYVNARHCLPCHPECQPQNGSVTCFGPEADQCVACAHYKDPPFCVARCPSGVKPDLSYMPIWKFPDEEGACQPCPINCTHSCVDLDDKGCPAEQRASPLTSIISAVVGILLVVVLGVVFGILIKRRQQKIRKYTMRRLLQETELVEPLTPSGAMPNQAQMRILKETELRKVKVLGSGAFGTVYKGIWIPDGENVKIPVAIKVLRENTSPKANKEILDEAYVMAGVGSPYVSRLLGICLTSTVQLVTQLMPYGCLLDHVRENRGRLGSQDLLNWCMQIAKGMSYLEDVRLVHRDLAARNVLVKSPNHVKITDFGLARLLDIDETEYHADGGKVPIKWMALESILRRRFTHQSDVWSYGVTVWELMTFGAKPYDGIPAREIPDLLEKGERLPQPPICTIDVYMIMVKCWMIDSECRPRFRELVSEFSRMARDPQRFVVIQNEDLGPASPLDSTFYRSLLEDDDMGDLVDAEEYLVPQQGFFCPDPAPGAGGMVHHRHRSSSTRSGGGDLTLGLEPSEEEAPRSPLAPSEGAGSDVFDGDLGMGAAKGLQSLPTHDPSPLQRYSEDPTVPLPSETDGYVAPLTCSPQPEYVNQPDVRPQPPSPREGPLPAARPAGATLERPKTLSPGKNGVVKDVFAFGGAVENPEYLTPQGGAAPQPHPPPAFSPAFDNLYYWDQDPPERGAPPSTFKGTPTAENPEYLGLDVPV

[2] = biological target: Vascular endothelial growth factor receptor 2 (Homo sapiens, UniProt P35968); assay: Inhibition of recombinant human N-terminal GST-fused KDR (D807 to V1356 residues) expressed in baculovirus infected […] insect Sf9 cells using poly-EY as substrate after 240 mins by luciferase coupled chemiluminescence assay
Sequence of Vascular endothelial growth factor receptor 2 (P35968 whole entry, the tested form may be a part): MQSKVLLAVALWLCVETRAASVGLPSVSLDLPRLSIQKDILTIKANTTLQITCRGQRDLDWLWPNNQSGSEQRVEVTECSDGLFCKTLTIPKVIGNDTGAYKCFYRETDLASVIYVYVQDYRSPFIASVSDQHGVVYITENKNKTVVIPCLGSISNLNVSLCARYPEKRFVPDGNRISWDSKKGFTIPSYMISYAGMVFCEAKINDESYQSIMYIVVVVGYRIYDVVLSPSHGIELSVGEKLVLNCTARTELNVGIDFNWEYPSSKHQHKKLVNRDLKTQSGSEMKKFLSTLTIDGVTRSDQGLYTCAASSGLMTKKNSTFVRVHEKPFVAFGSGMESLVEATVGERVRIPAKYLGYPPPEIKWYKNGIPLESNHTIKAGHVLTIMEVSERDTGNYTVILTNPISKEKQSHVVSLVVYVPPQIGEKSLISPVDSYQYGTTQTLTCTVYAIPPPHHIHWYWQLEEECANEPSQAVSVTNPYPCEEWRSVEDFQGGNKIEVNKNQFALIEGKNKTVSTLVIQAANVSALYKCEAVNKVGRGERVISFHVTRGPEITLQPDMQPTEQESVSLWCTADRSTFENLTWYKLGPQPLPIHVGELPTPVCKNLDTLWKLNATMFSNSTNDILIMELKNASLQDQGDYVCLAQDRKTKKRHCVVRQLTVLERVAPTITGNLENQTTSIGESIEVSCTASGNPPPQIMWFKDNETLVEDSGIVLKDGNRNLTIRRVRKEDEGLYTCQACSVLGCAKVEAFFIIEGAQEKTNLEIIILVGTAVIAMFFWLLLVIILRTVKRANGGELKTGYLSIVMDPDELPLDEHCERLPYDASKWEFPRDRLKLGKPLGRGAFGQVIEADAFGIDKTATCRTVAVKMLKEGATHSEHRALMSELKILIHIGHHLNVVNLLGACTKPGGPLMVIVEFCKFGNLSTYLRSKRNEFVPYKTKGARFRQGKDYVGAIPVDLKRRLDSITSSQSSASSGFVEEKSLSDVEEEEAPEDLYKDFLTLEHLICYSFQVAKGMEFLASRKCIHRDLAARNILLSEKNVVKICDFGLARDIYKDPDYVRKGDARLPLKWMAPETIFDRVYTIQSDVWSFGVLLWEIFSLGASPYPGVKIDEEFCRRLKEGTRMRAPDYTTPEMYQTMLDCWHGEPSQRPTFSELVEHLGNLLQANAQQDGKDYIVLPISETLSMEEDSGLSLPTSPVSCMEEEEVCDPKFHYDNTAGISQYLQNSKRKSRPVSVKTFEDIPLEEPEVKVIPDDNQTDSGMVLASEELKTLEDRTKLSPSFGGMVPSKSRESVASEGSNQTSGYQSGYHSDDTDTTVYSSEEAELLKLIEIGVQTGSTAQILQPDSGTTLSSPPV

[3] = biological target: Vascular endothelial growth factor receptor 1 (Homo sapiens, UniProt P17948); assay: Inhibition of recombinant human N-terminal GST-tagged factor 10a cleavage site-fused Flt1 (K784 to I1338 residues) expressed in baculovirus infected insect Sf9 cells using poly-EY as substrate after 120 mins in presence of gamma33P-ATP by liquid scintillation spectrometry
Sequence of Vascular endothelial growth factor receptor 1 (P17948 whole entry, the tested form may be a part): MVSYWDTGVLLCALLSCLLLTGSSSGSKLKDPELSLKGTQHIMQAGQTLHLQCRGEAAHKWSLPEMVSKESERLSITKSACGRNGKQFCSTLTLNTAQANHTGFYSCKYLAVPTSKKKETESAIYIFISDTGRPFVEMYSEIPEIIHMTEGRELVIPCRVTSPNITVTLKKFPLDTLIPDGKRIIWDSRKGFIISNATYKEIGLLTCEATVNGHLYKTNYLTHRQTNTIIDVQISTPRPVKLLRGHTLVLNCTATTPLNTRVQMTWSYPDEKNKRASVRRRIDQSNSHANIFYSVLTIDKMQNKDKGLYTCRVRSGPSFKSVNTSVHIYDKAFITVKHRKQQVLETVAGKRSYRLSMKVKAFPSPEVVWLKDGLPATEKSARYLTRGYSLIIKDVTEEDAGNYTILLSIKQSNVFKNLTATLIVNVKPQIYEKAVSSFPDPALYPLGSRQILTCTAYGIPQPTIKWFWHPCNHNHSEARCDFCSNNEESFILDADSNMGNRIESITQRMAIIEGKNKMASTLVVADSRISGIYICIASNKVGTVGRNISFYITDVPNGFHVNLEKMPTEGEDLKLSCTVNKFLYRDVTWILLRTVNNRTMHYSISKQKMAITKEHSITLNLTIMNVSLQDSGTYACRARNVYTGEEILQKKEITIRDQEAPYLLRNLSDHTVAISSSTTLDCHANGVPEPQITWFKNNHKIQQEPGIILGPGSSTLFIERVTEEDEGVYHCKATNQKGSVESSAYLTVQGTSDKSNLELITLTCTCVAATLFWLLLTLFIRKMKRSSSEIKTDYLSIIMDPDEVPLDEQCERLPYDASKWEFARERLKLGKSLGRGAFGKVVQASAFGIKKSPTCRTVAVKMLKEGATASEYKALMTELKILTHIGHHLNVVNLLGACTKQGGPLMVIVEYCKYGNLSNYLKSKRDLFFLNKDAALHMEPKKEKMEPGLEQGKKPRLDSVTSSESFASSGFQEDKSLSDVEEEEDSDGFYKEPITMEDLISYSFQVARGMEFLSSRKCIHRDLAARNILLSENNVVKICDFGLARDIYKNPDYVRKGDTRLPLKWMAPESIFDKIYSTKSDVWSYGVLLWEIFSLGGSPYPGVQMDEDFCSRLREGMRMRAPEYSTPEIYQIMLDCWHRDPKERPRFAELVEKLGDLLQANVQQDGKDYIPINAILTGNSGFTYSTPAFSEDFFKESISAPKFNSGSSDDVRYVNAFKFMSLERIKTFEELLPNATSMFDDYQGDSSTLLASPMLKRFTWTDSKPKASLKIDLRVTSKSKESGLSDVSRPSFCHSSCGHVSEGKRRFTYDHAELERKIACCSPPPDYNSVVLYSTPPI

Sequence of Ephrin type-A receptor 2 (P29317 whole entry, the tested form may be a part): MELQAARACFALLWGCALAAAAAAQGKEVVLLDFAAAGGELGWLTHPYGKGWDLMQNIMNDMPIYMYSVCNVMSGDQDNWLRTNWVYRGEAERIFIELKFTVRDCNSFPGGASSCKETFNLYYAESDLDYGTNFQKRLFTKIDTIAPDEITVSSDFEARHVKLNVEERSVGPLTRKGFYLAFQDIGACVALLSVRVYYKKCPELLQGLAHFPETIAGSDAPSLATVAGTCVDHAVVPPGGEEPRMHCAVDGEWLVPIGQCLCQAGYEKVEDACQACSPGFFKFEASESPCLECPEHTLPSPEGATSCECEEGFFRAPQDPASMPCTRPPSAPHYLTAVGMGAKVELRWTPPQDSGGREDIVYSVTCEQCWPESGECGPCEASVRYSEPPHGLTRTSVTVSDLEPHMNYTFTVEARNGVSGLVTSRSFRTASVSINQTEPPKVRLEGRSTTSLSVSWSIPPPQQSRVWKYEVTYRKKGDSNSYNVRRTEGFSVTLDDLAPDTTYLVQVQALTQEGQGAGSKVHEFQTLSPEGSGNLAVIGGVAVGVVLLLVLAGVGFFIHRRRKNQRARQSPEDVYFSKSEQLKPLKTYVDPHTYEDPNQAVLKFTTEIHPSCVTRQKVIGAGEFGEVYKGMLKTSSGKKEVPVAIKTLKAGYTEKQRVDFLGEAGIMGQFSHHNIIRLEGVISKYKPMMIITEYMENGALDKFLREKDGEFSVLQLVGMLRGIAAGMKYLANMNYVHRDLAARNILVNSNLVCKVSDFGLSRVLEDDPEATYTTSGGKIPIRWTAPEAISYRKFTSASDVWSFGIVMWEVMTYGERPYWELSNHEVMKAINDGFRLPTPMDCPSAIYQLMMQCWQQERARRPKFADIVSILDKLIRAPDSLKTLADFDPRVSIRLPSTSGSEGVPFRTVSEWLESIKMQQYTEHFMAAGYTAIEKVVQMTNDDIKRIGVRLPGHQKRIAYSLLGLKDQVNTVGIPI

Row | SMILES | IC50 (Ephrin type-A receptor 2) [µM] | IC50 (Ephrin type-B receptor 4) [µM] | IC50 [1] [µM] | IC50 [2] [µM] | IC50 [3] [µM]
1 | COc1cc2c(Nc3cc(Cl)c(Cl)cc3F)ncnc2cc1OC[C@@H]1CN2CCC[C@H]2CO1 | < 0.05 | < 0.05 | 0.05 to 1 | < 0.05 | 0.05 to 1
2 | COc1cc2c(Nc3ccc(Cl)c(Cl)c3)ncnc2cc1OC1C[C@@H]2CN(C)C[C@@H]2C1 (stereo not given in full) | 0.05 to 1 | 0.05 to 1 | 0.05 to 1 | 0.05 to 1 | 1 to 20

The next lines start with the values.

Row | IC50 (Ephrin type-A receptor 2) [µM] | IC50 (Ephrin type-B receptor 4) [µM] | IC50 [1] [µM] | IC50 [2] [µM] | IC50 [3] [µM] | SMILES
3 | 0.05 to 1 | < 0.05 | 1 to 20 | 0.05 to 1 | 0.05 to 1 | COc1cc2c(Nc3ccc(Cl)c(Cl)c3F)ncnc2cc1OC[C@@H]1CN2CCC[C@H]2C(=O)N1C
4 | 0.05 to 1 | < 0.05 | 1 to 20 | < 0.05 | 0.05 to 1 | COc1cc2c(Nc3ccc(Br)c(Cl)c3F)ncnc2cc1OC[C@@H]1CN2CCC[C@H]2C(=O)N1
5 | < 0.05 | < 0.05 | < 0.05 | < 0.05 | 0.05 to 1 | COc1cc2c(Nc3ccc(Cl)c(Cl)c3F)ncnc2cc1OC[C@@H]1C[C@@H]2CN(C)C[C@@H]2C1 [TESEVATINIB]
